Experimental data published in US9272013B2, “Methods for treating combined radiation and thermal injury” (University of Southern California, priority 2010, dated 2016).
“Also recorded” adds a separate entry of the source. Where no end group is shown, it is not given here. [ ]: non-standard residue; d: D form. Nle = CCCC[C@H](N)C(=O)O

Legend:
Assay type in all cases: in vivo
[1] = system: Guinea Pig Model of CRBI (200 cGy TBI and thermal injury 2 hours later); assay: Time point at which treatment can be initiated, survival in guinea pig CRBI model; settings: 10 or 100 μg/daily
Experimental: A second study was conducted in this model to assess the length of time that treatment can be delayed and still reduce mortality. In this study, the guinea pigs underwent 200 cGy TBI and thermal injury 2 hours later. Treatment with placebo was started on day 0. Treatment with 10 or 100 μg/daily NorLeu^3-A(1-7) was initiated on day 0, 1, 2, 3 or 4. When treatment was started at days 0, 1, 2, or 3 survival was increased to approximately 40-60% versus 14% in the placebo-treated animals (FIG. 6-9).
(§1) For these studies, male Hartley guinea pigs weighing approximately 500 grams were purchased from Charles Rivers Laboratory (Charles Rivers, Mass.). The guinea pigs were housed in a 12:12 hour, light:dark, cycle in the USC Vivaria. The animals received 200 cGy TBI using a Cesuim 137 irradiator. One to two hours thereafter, the guinea pigs received a thermal injury. The thermal injuries were produced and post-operative care performed as described in Rodgers et al., 1997a,b, 2001. Briefly, after anesthesia, two burns were produced on each guinea pig with an 18 mm diameter solid brass rod, which was warmed in a 75° C. water bath. One end of the brass rod was placed on the back of the guinea pig for 50 seconds.
Each burn was treated with 2% HEC (vehicle for topical drug application) with and without NorLeu^3-A(1-7) in 0.05 mol/L phosphate buffer, pH 6.5, and was individually dressed. […]

[2] = system: Guinea Pig Model of CRBI (200 cGy TBI combined with 18 mm burn injuries); assay: Proliferating cells at the edge of the burn (immunohistochemical staining, MIB-1) in guinea pig CRBI model; settings: topical, day 14, 200 cGy TBI + 18 mm burns
Experimental: (§2) In a subsequent study, 200 cGy TBI was combined with 18 mm burn injuries in a NorLeu^3-A(1-7) dose-response study. On the day of thermal injury and daily through day 14, various concentrations of NorLeu^3-A(1-7) (0-300 μg/day) were applied to the site of thermal injury (FIG. 3).
For these studies, male Hartley guinea pigs weighing approximately 500 grams were purchased from Charles Rivers Laboratory (Charles Rivers, Mass.). The guinea pigs were housed in a 12:12 hour, light:dark, cycle in the USC Vivaria. The animals received 200 cGy TBI using a Cesuim 137 irradiator. One to two hours thereafter, the guinea pigs received a thermal injury. […]
On day 14 after thermal injury, the guinea pigs was euthanized, the burned areas will be excised en bloc. […] Healing was measured by the number of proliferating cells at the injury site. […]
With an Olympus Vanox-S AH-2 dissecting microscope and a magnification power of 100×, each section of the biopsy specimen was separated into either areas on the burn edge or the actual burn areas. […] In each section four to six consecutive medium-power fields (mpf, 100×) were evaluated. […] All stained cells located within the hair follicles of the biopsy sections were counted. […] Each field was then determined to be either a section on the edge of the burn or a part of the burn area itself. […]

[3] = system: Guinea Pig Model of CRBI (200 cGy TBI combined with 18 mm burn injuries); assay: NorLeu^3-A(1-7) dose-response study, survival in guinea pig model of CRBI; settings: 1 μg/wound/day and above, applied to site of thermal injury daily through day 14; 200 cGy TBI + 18 mm burns
Experimental: as §2, §1
Each burn was treated with 2% HEC (vehicle for topical drug application) with and without NorLeu^3-A(1-7) in 0.05 mol/L phosphate buffer, pH 6.5, and was individually dressed. Treatment was started at various times after TBI and thermal injury as indicated below.

[4] = system: mouse model of CRBI (10 sec scald at 70 C following 600 cGy TBI); assay: Apoptosis in dermal tissue by TUNEL assay in mouse thermal injury / CRBI model; settings: daily 100 ul per wound at 1 mg/ml, day 7
Experimental: Mice received thermal injury only received a 7% total body surface area scald at 70 C for 10 seconds (under ketamine/xylazine anesthesia). Mice that received the combined injury received total body irradiation with a cesium irradiator at a dose of 6 Gy and 2 hours later received the same scald injury. For the data presented, the treatments were started immediately after the scald injury and the wound were bandaged with Tegaderm. Treatment was daily with 100 ul give per wound at a concentration of 1 mg/ml. The animals were euthanized on day 7. Apoptosis in the dermal tissue was measured by TUNEL assay. NorLeu3-A(1-7) provides additional systems to mitigate delayed wound healing with the involvement of radiation.

Asp-Arg-Nle-Tyr-Ile-His-Pro (DR[Nle]YIHP) [NorLeu^3-A(1-7)]
effectiveness (survival) with delayed treatment ([1]; initiation of treatment delayed until day 4): effectiveness was reduced
survival ([1]; treatment started at days 0, 1, 2, or 3 after CRBI, versus 14% in placebo-treated animals): 40-60%
number of proliferating cells in the hair follicle bulge at the edge of the wound ([2]; all doses (except 3 μg/wound/day)): increases proliferating cells; also recorded: increased the number of proliferating cells
number of (proliferating) cells in the basal keratinocyte layer at the edge of the burn ([2]; doses of 10 μg/daily and above): increases proliferating cells; also recorded: increase in the number of cells
mortality associated with combined injury [3]: reduced mortality
apoptosis in the dermis and subdermis of thermal injuries ([4]; mouse CRBI: 10 sec scald at 70 C following 600 cGy TBI): reduces apoptosis
apoptosis at the site of thermal injury alone ([4]; mouse thermal injury only (no TBI): 7% TBSA scald at 70 C for 10 seconds): not at the site of thermal injury alone
